The NIST ThermoML archive (doi:10.1016/j.fluid.2015.07.030)

Assay: refractive index (other wavelength) (dimensionless); xn = mol fraction of the nth substance listed
Conditions: 95.99 kPa, Liquid, Standard Abbe refractometry

OCCOCCOCCO [triethylene glycol] + O
refractive index
Conditions	Wavelength=404.7 nm	Wavelength=435.8 nm	Wavelength=486.1 nm	Wavelength=546.1 nm	Wavelength=587.6 nm	Wavelength=589.3 nm	Wavelength=632.8 nm	Wavelength=644 nm	Wavelength=706.5 nm
308.15 K, x2 = 0	–	–	–	–	–	–	–	1.44909	1.44737
308.15 K, x2 = 0.1056	–	–	–	–	–	–	–	1.44778	1.44608
308.15 K, x2 = 0.2069	–	–	–	–	–	–	–	1.44621	1.4451
308.15 K, x2 = 0.3104	–	–	–	–	–	–	–	1.44392	1.44202
308.15 K, x2 = 0.4844	–	–	–	–	–	–	–	1.43913	1.43745
308.15 K, x2 = 0.5016	–	–	–	–	–	–	–	1.43819	1.43653
308.15 K, x2 = 0.5952	–	–	–	–	–	–	–	1.43167	1.42998
308.15 K, x2 = 0.6016	–	–	–	–	–	–	–	1.43191	1.43023
308.15 K, x2 = 0.6788	–	–	–	–	–	–	–	1.42543	1.42374
308.15 K, x2 = 0.7835	–	–	–	–	–	–	–	1.41701	1.41536
308.15 K, x2 = 0.8184	–	–	–	–	–	–	–	1.41118	1.40951
308.15 K, x2 = 0.8473	–	–	–	–	–	–	–	1.4049	1.40326
308.15 K, x2 = 0.8719	–	–	–	–	–	–	–	1.39819	1.39653
308.15 K, x2 = 0.8926	–	–	–	–	–	–	–	1.39069	1.38904
308.15 K, x2 = 0.9106	–	–	–	–	–	–	–	1.38534	1.38371
308.15 K, x2 = 0.9254	–	–	–	–	–	–	–	1.37569	1.37409
308.15 K, x2 = 0.9303	–	–	–	–	–	–	–	1.37659	1.37498
308.15 K, x2 = 0.9391	–	–	–	–	–	–	1.37329	1.37297	1.37137
308.15 K, x2 = 0.951	–	–	–	–	–	–	1.36686	1.36654	1.36496
308.15 K, x2 = 0.9599	–	–	–	–	–	–	1.36065	1.36033	1.35875
308.15 K, x2 = 0.9708	–	–	–	–	–	–	1.35307	1.35275	1.35119
308.15 K, x2 = 0.979	–	–	–	–	–	–	1.34835	1.34803	1.34647
308.15 K, x2 = 0.9867	–	–	–	–	–	–	1.34205	1.34175	1.34023
308.15 K, x2 = 0.9936	–	–	–	–	–	–	1.33605	1.33576	1.33425
313.15 K, x2 = 0	1.46216	1.45863	1.45448	1.45106	1.44927	1.4492	1.44766	1.44731	1.44561
313.15 K, x2 = 0.1056	1.46096	1.45744	1.4533	1.4499	1.44812	1.44806	1.44652	1.44616	1.44445
313.15 K, x2 = 0.2069	1.45931	1.45583	1.45169	1.44831	1.44653	1.44647	1.44494	1.44459	1.44288
313.15 K, x2 = 0.3104	1.45682	1.45335	1.44921	1.44581	1.44397	1.44244	1.44209	1.44136	1.4404
313.15 K, x2 = 0.4844	1.45391	1.45049	1.44639	1.44305	1.44124	1.44046	1.43954	1.43899	1.43766
313.15 K, x2 = 0.5016	1.45102	1.44762	1.44358	1.44028	1.43853	1.43847	1.43695	1.43661	1.43492
313.15 K, x2 = 0.5952	1.44431	1.44094	1.43703	1.43376	1.43204	1.43197	1.43049	1.43015	1.42848
313.15 K, x2 = 0.6016	1.44384	1.44387	1.43615	1.43304	1.43132	1.43126	1.43021	1.42952	1.42809
313.15 K, x2 = 0.6788	1.43802	1.43469	1.43086	1.42768	1.42601	1.42559	1.42446	1.42411	1.42243
313.15 K, x2 = 0.7835	1.42903	1.42572	1.42205	1.41893	1.41728	1.41722	1.41578	1.41543	1.41372
313.15 K, x2 = 0.8184	1.42287	1.41965	1.41597	1.41287	1.41125	1.41119	1.40976	1.40942	1.40776
313.15 K, x2 = 0.8473	1.4172	1.41405	1.41039	1.40736	1.40575	1.40569	1.40427	1.40394	1.40231
313.15 K, x2 = 0.8719	1.41026	1.40715	1.40359	1.40061	1.39902	1.39896	1.39756	1.39723	1.39559
313.15 K, x2 = 0.8926	1.40276	1.39972	1.39624	1.39332	1.39177	1.39171	1.39035	1.39002	1.3884
313.15 K, x2 = 0.9106	1.39726	–	1.39088	1.38799	1.38648	1.38642	1.38508	1.38475	1.38313
313.15 K, x2 = 0.9254	1.38778	1.38484	1.38148	1.37865	1.37712	1.37706	1.37569	1.37537	1.37376
313.15 K, x2 = 0.9303	1.38834	1.38538	1.38203	1.3792	1.37769	1.37763	1.37629	1.37596	1.37435
313.15 K, x2 = 0.9391	1.38513	1.38218	1.37884	1.37598	1.37445	1.3744	1.37305	1.37272	1.37112
313.15 K, x2 = 0.951	1.37841	1.37555	1.37228	1.36949	1.36803	1.36794	1.36662	1.3663	1.36471
313.15 K, x2 = 0.9599	1.37093	1.36813	1.36494	1.36219	1.36072	1.36066	1.35936	1.35904	1.35747
313.15 K, x2 = 0.9708	1.36388	1.36116	1.35801	1.35533	1.35388	1.35383	1.35253	1.35221	1.35066
313.15 K, x2 = 0.979	1.35918	1.3565	1.35339	1.35071	1.34929	1.34923	1.34796	1.34764	1.3461
313.15 K, x2 = 0.9867	1.35221	1.34957	1.34651	1.34386	1.34243	1.34238	1.34111	1.34081	1.33932
313.15 K, x2 = 0.9936	1.34633	1.34376	1.34073	1.33811	1.3367	1.33665	1.3354	1.3351	1.33361
